Assay results: article PMC10959927, “Platinum iodido drugs show potential anti-tumor activity, affecting cancer cell metabolism and inducing ROS and senescence in gastrointestinal cancer cells” (Communications Biology, 2024)
“And” between values parts separate entries of the source, which are not always exact repeats. Identical values can stand only once.

Key:
Assay type in all cases: cell-based, human
AGS cells [1] = assay: Flow cytometry mitochondrial mass and membrane potential (MitoTracker Green / CMXRos)
Experimental: (§1) We used flow cytometry to study the mitochondrial mass, mitochondrial membrane potential (ΔΨm) and cellular senescence of untreated and treated cells. Cells (5 × 10^4) were seeded in 24-multiwell dishes and cultured overnight. […] Cells were tripsinized, stained with Mitoprobes and resuspended in Flow buffer [1X PBS; 3% Fetal Bovine Serum (v/v); 3 mM EDTA (v/v)] before analysis with a 4-laser Attune NxT Acoustic Cytometer (Thermo Fisher Scientific). For Mitoprobe assays, […] DAPI (Sigma) was used to exclude dead cells. Data were analyzed with FlowJo 9.3 software (Tree Star Inc., Ashland, OR). For mitochondrial mass and ΔΨm measurement, Mitotracker Green (MTGreen, M7514, Invitrogen) and Mitotracker Red CMXRos (CMXROS, M7512, Invitrogen) were used, respectively. Probes were incubated with cells for 30 min at 37 °C at a concentration of 100 nM (MTGreen) and 20 nM (CMXROS), and fluorescence was detected using the filters (Ex488nm/Em530/30) BL1 and (Ex561nm/Em585/16) YL1, respectively. To determine mitochondria functionality, the ratio between ΔΨm (MitoTracker Red CMXRos) versus Mit. Mass (MitoTracker Green) was calculated. The gating strategy used in all the Flow Cytometry experiments is reflected in Fig.S10.

MKN45 cells [2] = assay: as above
Experimental: as §1

PANC1 cells [3] = assay: as above
Experimental: as §1

AGS cells [4] = assay: Western blotting (p-p53, p-JNK, p-p38, p-ERK, p-CHK1/2, Mcl1, BID, BAX); settings: for fold change p-ERK vs Tubulin / fold change p-JNK vs Tubulin / fold change p-p38 vs Tubulin / fold change p-p53 vs Tubulin: Fig. 4A, replicate values; for fold change BAX vs Tubulin / fold change MCL1 vs Tubulin / fold change BID full length vs Tubulin: Fig. S3B
Experimental: (§2) Total protein extracts were obtained by adding the lysis buffer: 25 mM HEPES pH 7.5, 0.3 M NaCl, 1.5 mM MgCl2, 0.2 mM EDTA, 0.5 mM DTT, 20 mM β-glicerophosphate, 0.1 mM Na3VO4, 0.1% triton X-100; in the presence of protease inhibitors. Twenty μg of protein per sample were loaded and resolved using 8%, 10% or 15% SDS-PAGE polyacrylamide gels, and then transferred onto PVDF membranes, followed by immunodetection using appropriate antibodies, purchased from Santa Cruz Technology: Mcl-1 (sc-819), Cell Signaling Technology: BIM, BID, BAX (#9942), p-p38 (1:2000, #4631), p-p53^ser15 (#9284), p-ERK1/2 (1:2000, #9106), p-CHK1^ser345 and p-CHK2^ser19 (#9931), Promega Corporation-Spain: p-JNK (#V7932), or Sigma-Aldrich: α-tubulin (1:10000, #TP026). Unless indicated, all antibodies were diluted 1:1000. Secondary antibodies conjugated with horseradish peroxidase were purchased from BioRad, and chemiluminescence detection was performed using ECL (Santa Cruz Biotechnology).

PANC1 cells [5] = assay: as above; settings: for fold change p-ERK vs Tubulin / fold change p-JNK vs Tubulin / fold change p-p38 vs Tubulin / fold change p-p53 vs Tubulin: PANC1, Fig. 4A, replicate values
Experimental: as §2

MKN45 cells [6] = assay: SA-β-Gal activity, CellEvent Senescence Green flow cytometry;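 note: IC50 concentration of each compound relative to untreated control set as 1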; settings: Fig. 3A, replicate values
Experimental: SA-β-Gal activity was measured following two different approaches. (i) AGS, MKN45 and PANC1 cells (5 × 10^4) were seeded in 24-multiwell dishes and incubated overnight. […] For flow cytometry cell senescence detection, cells were tripsinized, fixed for 15 min with PFA 4% and stained with the CellEvent Senescense Green Flow Cytometry Assay Kit (C10840, Invitrogen) according to manufacturer’s instructions. CellEvent Senescense Green Probe was used at a 1:500 dilution and fluorescence was detected using the filter (Ex488nm/Em530/30) BL1 with a 4-laser Attune NxT Acoustic Cytometer (Thermo Fisher Scientific). […] After 3 h, the treatments were removed, new supplemented medium was added, and cells were incubated for an additional 24 h. Finally, SA-β-Gal staining was performed using the Senescence Cells Histochemical Staining Kit (CS0030-1KT) according to the manufacturer’s instructions.

AGS cells [7] = assay: Ratio GSH/GSSG, colorimetric kit
Experimental: (§3) GSH and GSSG levels were determined in AGS and PANC1 cells after 3 and 24 h of treatment with the compounds (using H2O2 as a positive control) with the Glutathione Colorimetric Detection Kit (ThermoFisher) following the manufacturer’s instructions. Thirty minutes after adding the Colorimetric Detection Reagent and the Reaction Mixture, the absorbance was read at 405 nm. A standard curve was generated with each assay to interpolate the sample results. To measure GSSG, standards and samples must be diluted with the Sample Diluent containing 2-vinylpyridine.

PANC1 cells [8] = assay: Ratio GSH/GSSG, colorimetric kit
Experimental: as §3

[9] = MKN45, fold change vs C, replicates
[10] = PANC1, fold change vs C, replicates

[NH2][Pt]([NH2])([Cl])[Cl] [CDDP, cisplatin, reference compound]
Fold change ΔΨm/MM (AGS cells [1]; IC50 doses 24 h, CMX-ROS/MitoGreen ratio vs untreated 1.0): 1.12 and 0.8 and 0.61
Fold change %CMXROS, ΔΨm (AGS cells [1]; fold change vs C, replicates): 0.87 and 0.86 and 0.72
Fold change %MTGreen, MM (AGS cells [1]; fold change vs C, replicates): 0.78 and 0.73 and 0.76
Fold change ΔΨm/MM (MKN45 cells [2]; MKN45, IC50 doses 24 h, CMX-ROS/MitoGreen ratio vs untreated 1.0): 0.77 and 0.76
Fold change %CMXROS, ΔΨm (MKN45 cells [2]; [9]): 0.72 and 0.71
Fold change %MTGreen, MM (MKN45 cells [2]; [9]): 0.94 and 0.93
Fold change ΔΨm/MM (PANC1 cells [3]; PANC1, IC50 doses 24 h, CMX-ROS/MitoGreen ratio vs untreated 1.0): 0.48 and 0.57 and 0.56
Fold change %CMXROS, ΔΨm (PANC1 cells [3]; [10]): 1.08 and 1.13
Fold change %MTGreen, MM (PANC1 cells [3]; [10]): 1.99 and 2.23 and 2.11
phosphorylation of CHK1/2 (DDR pathway, western blot) (AGS cells [4]; IC50, 1, 3, 6 or 24 h): induced the phosphorylation
fold change p-ERK vs Tubulin (AGS cells [4]; Time 1 h): 0.9528 fold change and 0.9782 fold change and 0.8139 fold change
fold change p-JNK vs Tubulin (AGS cells [4]; Time 1 h): 0.895 fold change and 1.558 fold change and 0.8178 fold change
fold change p-p38 vs Tubulin (AGS cells [4]; Time 1 h): 1.508 fold change and 0.8638 fold change and 1.487 fold change
fold change p-p53 vs Tubulin (AGS cells [4]; Time 1 h): 0.9865 fold change and 0.9436 fold change and 1.458 fold change
fold change p-ERK vs Tubulin (AGS cells [4]; Time 3 h): 1.409 fold change and 0.9423 fold change and 1.158 fold change
fold change p-JNK vs Tubulin (AGS cells [4]; Time 3 h): 1.014 fold change and 1.185 fold change and 0.899 fold change
fold change p-p38 vs Tubulin (AGS cells [4]; Time 3 h): 1.39 fold change and 0.6346 fold change and 1.266 fold change
fold change p-p53 vs Tubulin (AGS cells [4]; Time 3 h): 0.5865 fold change and 1.299 fold change and 1.138 fold change
fold change p-ERK vs Tubulin (AGS cells [4]; Time 6 h): 2.441 fold change and 1.161 fold change and 1.546 fold change
fold change p-JNK vs Tubulin (AGS cells [4]; Time 6 h): 1.257 fold change and 1.756 fold change and 0.7623 fold change
fold change p-p38 vs Tubulin (AGS cells [4]; Time 6 h): 0.9545 fold change and 1.021 fold change and 0.8104 fold change
fold change p-p53 vs Tubulin (AGS cells [4]; Time 6 h): 1.308 fold change and 1.189 fold change and 1.275 fold change
fold change p-ERK vs Tubulin (AGS cells [4]; Time 24 h): 2.387 fold change and 2.45 fold change and 1.9989 fold change
fold change p-JNK vs Tubulin (AGS cells [4]; Time 24 h): 1.302 fold change and 2.33 fold change and 0.8503 fold change
fold change p-p38 vs Tubulin (AGS cells [4]; Time 24 h): 0.6414 fold change and 1.823 fold change and 1.149 fold change
fold change p-p53 vs Tubulin (AGS cells [4]; Time 24 h): 3.183 fold change and 2.955 fold change and 1.906 fold change
fold change BAX vs Tubulin (AGS cells [4]; time 1 h): 1.198 fold change and 1.173 fold change and 0.877 fold change
fold change MCL1 vs Tubulin (AGS cells [4]; time 1 h): 1.103 fold change and 0.99 fold change and 0.761 fold change
fold change BAX vs Tubulin (AGS cells [4]; time 3 h): 0.789 fold change and 1.149 fold change and 1.345 fold change
fold change MCL1 vs Tubulin (AGS cells [4]; time 3 h): 0.575 fold change and 0.967 fold change and 0.513 fold change
fold change BAX vs Tubulin (AGS cells [4]; time 6 h): 1.098 fold change and 1.54 fold change and 2.188 fold change
fold change BID full length vs Tubulin (AGS cells [4]; time 6 h): 0.649 fold change and 1.175 fold change and 0.953 fold change
fold change MCL1 vs Tubulin (AGS cells [4]; time 6 h): 1.101 fold change and 0.938 fold change and 0.603 fold change
fold change BID full length vs Tubulin (AGS cells [4]; time 24 h): 1.562 fold change and 1.807 fold change and 1.427 fold change
fold change MCL1 vs Tubulin (AGS cells [4]; time 24 h): 0.943 fold change and 0.926 fold change and 0.668 fold change
phosphorylation of CHK1/2 (DDR pathway, western blot) (PANC1 cells [5]; PANC1, IC50, 1, 3, 6 or 24 h): induced the phosphorylation
fold change BAX vs Tubulin (PANC1 cells [5]; PANC1, time 1 h, Fig. S3B): 1.6915 fold change and 0.9781 fold change and 1.332 fold change
fold change MCL1 vs Tubulin (PANC1 cells [5]; PANC1, time 1 h, Fig. S3B): 0.9288 fold change and 1.014 fold change and 1.02 fold change
fold change BAX vs Tubulin (PANC1 cells [5]; PANC1, time 3 h, Fig. S3B): 1.86 fold change and 1.118 fold change and 1.518 fold change
fold change MCL1 vs Tubulin (PANC1 cells [5]; PANC1, time 3 h, Fig. S3B): 1.904 fold change and 2.322 fold change and 1.672 fold change
fold change BAX vs Tubulin (PANC1 cells [5]; PANC1, time 6 h, Fig. S3B): 1.424 fold change and 1.3785 fold change and 1.29 fold change
fold change MCL1 vs Tubulin (PANC1 cells [5]; PANC1, time 6 h, Fig. S3B): 1.358 fold change and 1.631 fold change and 1.901 fold change
fold change BAX vs Tubulin (PANC1 cells [5]; PANC1, time 24 h, Fig. S3B): 1.469 fold change and 1.617 fold change and 1.511 fold change
fold change BID full length vs Tubulin (PANC1 cells [5]; PANC1, time 24 h, Fig. S3B): 1.745 fold change and 2.178 fold change and 1.991 fold change
fold change MCL1 vs Tubulin (PANC1 cells [5]; PANC1, time 24 h, Fig. S3B): 1.279 fold change and 1.508 fold change and 1.299 fold change
fold change p-ERK vs Tubulin (PANC1 cells [5]; Time 1 h): 1.164 fold change and 1.13 fold change and 1.21 fold change
fold change p-JNK vs Tubulin (PANC1 cells [5]; Time 1 h): 1.373 fold change and 1.201 fold change and 1.17 fold change
fold change p-p38 vs Tubulin (PANC1 cells [5]; Time 1 h): 1.546 fold change and 1.183 fold change and 0.9863 fold change
fold change p-p53 vs Tubulin (PANC1 cells [5]; Time 1 h): 1.04 fold change and 1.08 fold change and 0.83 fold change
fold change p-ERK vs Tubulin (PANC1 cells [5]; Time 3 h): 0.6555 fold change and 1.708 fold change and 1.33 fold change
fold change p-p38 vs Tubulin (PANC1 cells [5]; Time 3 h): 0.9361 fold change and 0.959 fold change and 0.6722 fold change
fold change p-p53 vs Tubulin (PANC1 cells [5]; Time 3 h): 1.501 fold change and 1.122 fold change and 1.403 fold change
fold change p-ERK vs Tubulin (PANC1 cells [5]; Time 6 h): 0.4691 fold change and 2.127 fold change and 1.29 fold change
fold change p-JNK vs Tubulin (PANC1 cells [5]; Time 6 h): 0.7555 fold change and 0.4269 fold change and 0.7284 fold change
fold change p-p38 vs Tubulin (PANC1 cells [5]; Time 6 h): 0.8737 fold change and 0.5515 fold change and 0.5907 fold change
fold change p-p53 vs Tubulin (PANC1 cells [5]; Time 6 h): 2.227 fold change and 1.131 fold change and 2.015 fold change
fold change p-ERK vs Tubulin (PANC1 cells [5]; Time 24 h): 0.8571 fold change and 2.648 fold change and 1.55 fold change
fold change p-JNK vs Tubulin (PANC1 cells [5]; Time 24 h): 0.8188 fold change and 0.748 fold change and 1.253 fold change
fold change p-p38 vs Tubulin (PANC1 cells [5]; Time 24 h): 1.702 fold change and 0.3951 fold change and 0.5063 fold change
fold change p-p53 vs Tubulin (PANC1 cells [5]; Time 24 h): 2.03 fold change and 4.05 fold change and 2.63 fold change
Fold change % Senescence (MKN45 cells [6]): 1.67 fold change and 1.92 fold change and 1.87 fold change
GSH/GSSG (AGS cells [7]; AGS, 3, relative to Control = 1): 0.992 and 0.9971 and 1.026
GSH/GSSG (AGS cells [7]; AGS, 24, relative to Control = 1): 0.8767 and 0.8827 and 0.9433
GSH/GSSG (PANC1 cells [8]; PANC1, 3, relative to Control = 1): 0.8204 and 0.833 and 0.8843
GSH/GSSG (PANC1 cells [8]; PANC1, 24, relative to Control = 1): 0.8133 and 0.9393 and 0.9531
